Results published in patent US20240279218A1 (Hoffmann-La Roche Inc., priority 2016, published 2024).

Columns and labels:
h-GABA-A α5β3γ2 [1] = biological target: T1, h-GABA-A α5β3γ2 (Homo sapiens (Human), UniProt P18507+P31644); experiment: [3H]flumazenil competition binding assay, membranes of HEK293 cells expressing human GABAA receptors; conditions: displacement of [3H]flumazenil 0.5 nM, HEK293 cells expressing human receptors, mean of two determinations; read-out: Ki h-GABA-A α5β3γ2
Outline: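 Membranes were prepared from HEK293 cells with transient human α5β3γ2 expression and assayed in Krebs-tris, pH 7.5. Bound radioactivity measured on filters by liquid scintillation.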

h-GABA-A α5β3γ2 [2] = biological target: T1, h-GABA-A α5β3γ2; experiment: Two-electrode voltage clamp electrophysiology in Xenopus oocytes expressing GABAA receptors, modulation of GABA EC20 current; assay type: cell-based; conditions: Xenopus oocytes; for Efficacy (GABA) %: % modulation of GABA EC20 = 100*(Fold increase−1); for Fold increase h-GABA-A α5β3γ2 oocyte: GABA EC20, test compound at approx. 30 fold its Ki
Outline: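 Values are % modulation of an EC20 GABA response, derived point by point from the ratio of compound-exposed versus control current traces (extremum taken, 100×(fold−1)). Recordings used oocytes injected with human α5, β3, γ2 mRNA, clamped at −80 mV at room temperature, at least 3 oocytes each.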

| Structure (SMILES) | Ki (h-GABA-A α5β3γ2 [1]) [nM] | Efficacy (GABA) % (h-GABA-A α5β3γ2 [2]) [%] | Fold increase h-GABA-A α5β3γ2 oocyte (h-GABA-A α5β3γ2 [2]) |
| --- | --- | --- | --- |
| Cc1onc(-c2ccc(Cl)nc2)c1COc1ccc(C(=O)NC2CCOCC2)nn1 [Example 159, 6-((3-(6-chloropyridin-3-yl)-5-methylisoxazol-4-yl)methoxy)-N-(tetrahydropyran-4-yl)pyridazine-3-carboxamide] | 23.7 | 55 | 1.55 |
| Cc1ccc(-c2noc(C)c2COc2ccc(C(=O)N3CCC(F)(F)CC3)nn2)cn1 [Example 53, (4,4-difluoropiperidin-1-yl)(6-((5-methyl-3-(6-methylpyridin-3-yl)isoxazol-4-yl)methoxy)pyridazin-3-yl)methanone] | 95.8 | 80 | 1.8 |
| CCO[C@H]1CC[C@H](NC(=O)c2ccc(OCc3c(-c4ccc(C)nc4)noc3C)nn2)CC1 [Example 195, N-(4-ethoxycyclohexyl)-6-((5-methyl-3-(6-methylpyridin-3-yl)-1,2-oxazol-4-yl)methoxy)pyridazine-3-carboxamide] | 17.3 | 78 | 1.78 |
| Cc1ccc(-c2noc(C)c2COc2ccc(C(=O)N[C@H]3CCCC[C@@H]3O)cn2)cn1 [Example 135, N-((1S,2S)-2-hydroxycyclohexyl)-6-((5-methyl-3-(6-methylpyridin-3-yl)isoxazol-4-yl)methoxy)pyridine-3-carboxamide] | 30.4 | 92 | 1.92 |
| Cc1ccc(-c2noc(C)c2COc2ccc(C(=O)NC3(C)CC3)nn2)cn1 [Example 76, 6-((5-methyl-3-(6-methylpyridin-3-yl)isoxazol-4-yl)methoxy)-N-(1-methylcyclopropyl)pyridazine-3-carboxamide] | 9 | 92 | 1.92 |
| Cc1ccc(-c2noc(C)c2COc2cnc(C(=O)NC3CCOC3)cn2)cn1 (stereo in doubt) [Example 92, (S)-5-((5-Methyl-3-(6-methylpyridin-3-yl)isoxazol-4-yl)methoxy)-N-(tetrahydrofuran-3-yl)pyrazine-2-carboxamide] | 13.2 | 67 | 1.67 |
| Cc1onc(-c2ccc(C(F)(F)F)nc2)c1COc1ccc(C(=O)NC2CCOCC2)nn1 [Example 185, 6-((5-methyl-3-(6-(trifluoromethyl)pyridin-3-yl)isoxazol-4-yl)methoxy)-N-(tetrahydropyran-4-yl)pyridazine-3-carboxamide] | 70.7 | 124 | 2.24 |
| Cc1ccc(-c2noc(C)c2COc2ccc(C(N)=O)nn2)cn1 [Example 18, 6-((5-methyl-3-(6-methylpyridin-3-yl)isoxazol-4-yl)methoxy)pyridazine-3-carboxamide] | 10.2 | 59 | 1.59 |
| Cc1ccc(-c2noc(C)c2COc2cc(C)c(C(=O)NC3CCOCC3)nn2)cn1 [Example 62, 4-methyl-6-((5-methyl-3-(6-methylpyridin-3-yl)isoxazol-4-yl)methoxy)-N-(tetrahydropyran-4-yl)pyridazine-3-carboxamide] | 20.8 | 42 | 1.42 |
| Cc1ccc(-c2noc(C)c2COc2cnc(C(=O)NCCO)cn2)cn1 [Example 90, N-(2-Hydroxyethyl)-5-((5-methyl-3-(6-methylpyridin-3-yl)isoxazol-4-yl)methoxy)pyrazine-2-carboxamide] | 16.7 | 37 | 1.37 |
| Cc1ccc(-c2noc(C)c2COc2ccc(C(=O)N[C@@H]3CCOC[C@@H]3C)nn2)cn1 [Example 52, 6-((5-methyl-3-(6-methylpyridin-3-yl)isoxazol-4-yl)methoxy)-N-((3R,4R)-3-methyltetrahydropyran-4-yl)pyridazine-3-carboxamide] | 28.9 | 67 | 1.67 |
| Cc1ncc(-c2noc(C)c2COc2ccc(C(=O)NC(C)C)cn2)cc1F [Example 144, 6((3-(5-fluoro-6-methyl-3-pyridyl)-5-methyl-isoxazol-4-yl)methoxy)-N-isopropyl-pyridine-3-carboxamide] | 13.6 | 15 | 1.15 |
| CCC[C@@H](CO)NC(=O)c1ccc(OCc2c(-c3ccc(C)nc3)noc2C)nc1 [Example 4, (S)—N-(1-hydroxypentan-2-yl)-6-((5-methyl-3-(6-methylpyridin-3-yl)isoxazol-4-yl)methoxy)nicotinamide] | 7.3 | 150 | 2.5 |
| Cc1ccc(-c2noc(C)c2COc2cnc(C(=O)NC3CC4(COC4)C3)cn2)cn1 [Example 101, 5-((5-methyl-3-(6-methylpyridin-3-yl)isoxazol-4-yl)methoxy)-N-(2-oxaspiro[3.3]heptan-6-yl)pyrazine-2-carboxamide] | 50.6 | 82 | 1.82 |
| CCO[C@H]1C[C@H](NC(=O)c2ccc(OCc3c(-c4ccc(C)nc4)noc3C)nn2)C1 [Example 172, trans-N-(3-ethoxycyclobutyl)-6-((5-methyl-3-(6-methylpyridin-3-yl)isoxazol-4-yl)methoxy)pyridazine-3-carboxamide] | 8.8 | 65 | 1.65 |

More lines, now with the values ahead:

| Ki (h-GABA-A α5β3γ2 [1]) [nM] | Efficacy (GABA) % (h-GABA-A α5β3γ2 [2]) [%] | Fold increase h-GABA-A α5β3γ2 oocyte (h-GABA-A α5β3γ2 [2]) | Structure (SMILES) |
| --- | --- | --- | --- |
| 13.1 | 31 | 1.31 | Cc1ccc(-c2noc(C)c2COc2cnc(C(=O)N[C@@H]3CCOC3)cn2)cn1 [Example 89, (R)-5-((5-Methyl-3-(6-methylpyridin-3-yl)isoxazol-4-yl)methoxy)-N-(tetrahydrofuran-3-yl)pyrazine-2-carboxamide] |
| 10 | 78 | 1.78 | Cc1ccc(-c2noc(C)c2COc2ccc(C(=O)N[C@H]3CC[C@](C)(O)CC3)nn2)cn1 [Example 146] |
| 13.4 | 67 | 1.67 | Cc1ccc(-c2noc(C)c2COc2cnc(C(=O)NCC3CC3)cn2)cn1 [Example 95, N-(cyclopropylmethyl)-5-((5-methyl-3-(6-methylpyridin-3-yl)isoxazol-4-yl)methoxy)pyrazine-2-carboxamide] |
| 0.8 | 42 | 1.42 | CCC[C@@H](CO)NC(=O)c1ccc(OCc2c(-c3ccc(C)nn3)noc2C)nc1 [Example 109, N-((1S)-1-(hydroxymethyl)butyl)-6-((5-methyl-3-(6-methylpyridazin-3-yl)isoxazol-4-yl)methoxy)pyridine-3-carboxamide] |
| 8 | 52 | 1.52 | Cc1ccc(-c2noc(C)c2COc2ccc(C(=O)N[C@@H]3CCOC[C@H]3O)nn2)cn1 [Example 28, N-((3S,4R)-3-hydroxytetrahydropyran-4-yl)-6-((5-methyl-3-(6-methylpyridin-3-yl)isoxazol-4-yl)methoxy)pyridazine-3-carboxamide] |
| 93.8 | 46 | 1.46 | COc1ccc(-c2noc(C)c2COc2ccc(C(=O)NC(C)C)cn2)cn1 [Example 138, N-isopropyl-6-((3-(6-methoxypyridin-3-yl)-5-methylisoxazol-4-yl)methoxy)pyridine-3-carboxamide] |
| 6.5 | 43 | 1.43 | Cc1ccc(-c2noc(C)c2COc2ccc(C(=O)N3CC4(C3)CS(=O)(=O)C4)nn2)cn1 [Example 112, (2,2-dioxido-2-thia-6-azaspiro[3.3]heptan-6-yl)(6-((5-methyl-3-(6-methylpyridin-3-yl)isoxazol-4-yl)methoxy)pyridazin-3-yl)methanone] |
| 68 | 147 | 2.47 | Cc1ccc(-c2noc(C3CC3)c2COc2ccc(C(=O)NC3CC4(COC4)C3)nn2)cn1 [Example 181, 6-((5-cyclopropyl-3-(6-methylpyridin-3-yl)isoxazol-4-yl)methoxy)-N-(2-oxaspiro[3.3]heptan-6-yl)pyridazine-3-carboxamide] |
| 43.1 | 95 | 1.95 | Cc1ccc(-c2noc(C)c2COc2ccc(C(=O)N[C@H]3CCCC(F)(F)[C@@H]3O)cn2)cn1 [Example 133, N-((1S,2R)-3,3-difluoro-2-hydroxycyclohexyl)-6-((5-methyl-3-(6-methylpyridin-3-yl)isoxazol-4-yl)methoxy)pyridine-3-carboxamide] |
| 13.8 | 77 | 1.77 | Cc1ccc(-c2noc(C)c2COc2ccc(C(=O)N[C@H]3CC[C@@](C)(O)CC3)nn2)cn1 [Example 148, N-((1s,4s)-4-hydroxy-4-methylcyclohexyl)-6-((5-methyl-3-(6-methylpyridin-3-yl)isoxazol-4-yl)methoxy)pyridazine-3-carboxamide] |
| 12.7 | 63 | 1.63 | CCO[C@@H]1CC[C@@H](NC(=O)c2ccc(OCc3c(-c4ccc(C)nc4)noc3C)nn2)C1 [Example 190, N-((1R,3R)-3-ethoxycyclopentyl)-6-((5-methyl-3-(6-methylpyridin-3-yl)isoxazol-4-yl)methoxy)pyridazine-3-carboxamide] |
